According to patent US7943606B2, “Compositions and methods to control abnormal cell growth” (CanCure Laboratories, LLC, priority 2005, dated 2011):
Structures can show the parent of a compound that is named as a salt. Where two headings read alike, the source gives them in different places.

Key:
Format in all cases: cell-based, human
T47D cells = experiment: Viability of T47D breast cancer cells; settings: for inhibition at 100 µM / IC50: Homo sapiens, T47D; for inhibition at 100 µM: read-out: Decrease in cell number (maximal decrease = 100%), T47D
Description: (§1) To quantify cell death, around the time when significant and characteristic morphological changes took place, cells were pulse-labeled for 10 minutes with [^3H]thymidine to measure DNA activity as described elsewhere [Tomono, M. and Kiss, Z. (1995), “Ethanol enhances the stimulatory effects of insulin and insulin-like growth factor-I on DNA synthesis in NIH 3T3 fibroblasts,” Biochem. Biophys. Res. Commun. 208, 63-67]. Also, cells were collected as suspensions using trypsin, an established method in cell biology, followed by re-plating of cells in fresh tissue culture medium. If no viable cells were obtained after one week in culture, it meant that the cells at the time of re-plating were dead. Survival values obtained with untreated cells were considered 100%. For the determination of relative number of viable cells after treatments, in most cases the MTT assay was used. This calorimetric assay is based on the ability of living cells, but not dead cells, to reduce 3-(4,5-dimethyl thiazol-2-yl)-2,5-diphenyltetrazolium bromide [Carmichael, J, De Graff, W. G., Gazdar, A. F., Minna, J. D. and Mitchell, J. B. (1987), “Evaluation of tetrazolium-based semi-automated calorimetric assay: Assessment of chemosensitivity testing,” Cancer Res. 47, 936-942]. For this assay, cells were plated in 96-well plates, and the MTT assay was performed both in untreated and treated cell cultures. The MTT assay also was performed at the start of treatments to allow assessment of proliferation rates in the control and treated cell cultures.
About 40% confluent cultures of T47D cells, cultured in 12-well plates in RPMI 1640 medium supplemented with 0.2 IU bovine insulin and 10% FBS, were either untreated (FIG. 4A), or were treated with 100 μM CCDTHT (CCompound3) for 72 hours (FIG. 4B).
(§2) NIH3T3, T47D, A-431, HT-29, and MEL-28 cells were cultured as indicated earlier. CaOV-3 human ovarian cancer cells were cultured in DMEM containing 10% FBS. ZR-75-1 human estrogen receptor-positive breast cancer cells were maintained in RPMI 1640 medium supplemented with 10% FBS. HTB-157 human fetal fibroblasts, MEL-24 human malignant melanoma cells, Hep G2 human hepatoblastoma cells, and CaCO-2 human colon adenocarcinoma cells were maintained in Eagles's MEM containing 10% FBS. MB-231 human estrogen receptor-negative breast cancer cells were maintained in Leibovitz's L-15 medium supplemented with 10% FBS. Cells were seeded into 96-well plates and treated at ˜70-90% confluency. Two hours prior to treatments the medium was changed for fresh 10% serum medium, and then the cells were incubated for 10 days in the absence (□) or presence of 50 μM CCDTHT ? or 100 μM CCDTHT (▪). The medium was changed and the cells were re-treated on days 3 and 6. The MTT assay was used to determine cell viability on day 10. The data, shown in FIG. 6, are the mean±std. dev. of 8 incubations in one experiment.
The MRC-5 cell line is derived from normal lung tissue of a […] fetus. MRC-5 cells were maintained and treated in Eagles Medium with Hanks' BSS containing 10% fetal bovine serum. The T47D cells were maintained and treated in RPMI 1640 medium supplemented with 0.2 IU bovine insulin and 10% fetal bovine serum. The CaOV-3 human ovarian cancer cells were cultured in Dulbecco's modified Eagle's medium containing 10% fetal bovine serum. The cells were seeded in 96-well plates either at 10,000 cells per well or 30,000 cells per well to examine the antiproliferative and cytotoxic effects of various CC compounds, respectively. The cells were incubated for 24 hours, then the medium was changed followed by the treatments of cultures 2 hours after the medium change. At this point, cell cultures seeded at 10,000 cells per well and 30,000 cells per well were 25-35% and 80-90% confluent, respectively.

HT-29 cells = experiment: Viability of HT-29 colon adenocarcinoma cells (MTT assay); settings: for inhibition at 100 µM: HT-29, similar comparative study (100 μM, 72 hours), read-out: inhibition of proliferation, HT-29
Description: as §1
(§3) The NIH 3T3 (normal) mouse fibroblast, A431 human epidermoid adenocarcinoma, and MCF-7 human breast cancer cells were cultured in DMEM medium containing 10% FBS. The MEL-28 human melanoma cells were cultured in MEM medium containing 10% FBS. The HT-29 human colon adenocarcinoma cells were cultured in McCoy's 5a medium containing 10% FBS. The A549 human lung carcinoma cells were maintained in Ham's F12K medium containing 10% FBS. Cells were seeded into 96-well plates and treated at ˜70-90% confluency. Two hours before treatments the medium was changed for fresh 10% serum medium, and then the cells were incubated for 72 hours in the presence of 0-200 μM of CCompound1 (●) or CCompound3 (CCDTHT) (▴), as indicated. The MTT assay was used to determine cell viability after treatments. The values, shown in FIGS. 5A-5F and expressed as percent decrease in viability compared to the untreated control cells, are the mean±std. dev. of 8 incubations in one experiment. Similar results were obtained in another experiment.
as §2, with “The MTT assay was used to determine cell viability on day 10. The data, shown in FIG. 6, are the mean±std. dev. of 8 incubations in one experiment.” left out

A-431 cells = experiment: Viability of A-431 epidermoid adenocarcinoma cells (MTT assay); settings: for inhibition at 100 µM: Homo sapiens, A-431, similar comparative study (100 μM, 72 hours), read-out: inhibition of proliferation, A-431
Description: as §1, §3
as §2, with “experiment. (The experiment was repeated twice with similar results).” for “experiment.”
NIH 3T3, MEL-28, MEL-24, CaOV-3, ZR-75-1, and T47D cells were cultured as described above. The OVCAR human ovarian cancer cells were cultured in DMEM containing 10% FBS. Cells were seeded into 96-well plates and used at ˜60-80% confluency. […]

CC[N+](C)(CC)CCOCc1ccc2sc3ccccc3c(=O)c2c1.[I-] [CCDTHT, N,N-diethyl-N-methyl-2-[(9-oxo-9H-thioxanthen-2-yl)methoxy]-ethanaminium iodide]
DNA synthesis after re-seeding treated T47D cells (T47D cells; 100 μM 72 hours, re-seeded, 96 hours later): no DNA synthesis could be detected
morphology / cell death, T47D (T47D cells; 100 μM, 72 hours, 12-well plates): practically all cells rounded up
sensitivity to the inhibitory actions, T47D (T47D cells; 50 and 100 μM, 10 days, MTT): very sensitive
inhibition at 100 µM (T47D cells; 100 μM, 72 hours): 61%
IC50 (T47D cells; 10,000 cells per well (25-35% confluent), 72 hours, MTT, read-out: IC50 values, Antiproliferative, T47D): 47 µM
IC50 (T47D cells; 30,000 cells per well (80-90% confluent), 72 hours, MTT, read-out: IC50 values, Cytotoxic, T47D): 66 µM
reduction of cell numbers, HT-29, CCDTHT versus CCompound1 (HT-29 cells; 0-200 μM, 72 hours, MTT): clearly more effective than CCompound1
decrease in the number of viable cells versus 0.5 mM HC-3, HT-29 (HT-29 cells; 100 μM, 72 hours, MTT): much greater decreases in the number of viable cells compared to 0.5 mM HC-3
cytotoxicity at 100 µM (HT-29 cells; Homo sapiens, HT-29, 240 h, 100 μM, 10 days, MTT, read-out: reduction in the number of viable cells, HT-29): ≤ 50%
decrease in viability, A-431 (A-431 cells; 0-200 μM, 72 hours, MTT): similarly large effects
sensitivity to the inhibitory actions, A-431 (A-431 cells; 50 and 100 μM, 10 days, MTT): very sensitive
inhibition at 100 µM (A-431 cells): 68 to 74%

CC[N+](CC)(CC)CCCOCc1ccc2sc3ccccc3c(=O)c2c1 [CCcompound9, N,N,N-Triethyl-3-[(9-oxo-9H-thioxanthen-2-yl)methoxy]-propane-1-aminium iodide]
inhibition at 100 µM (T47D cells; 100 μM, 72 hours): 52%
inhibition at 100 µM (A-431 cells): 68 to 74%

CC[N+](C)(CC)CCCOCc1ccc2sc3ccccc3c(=O)c2c1 [CCcompound10, N,N-Diethyl-N-methyl-3-[(9-oxo-9H-thioxanthen-2-yl)methoxy]-propane-1-aminium iodide]
inhibition at 100 µM (T47D cells; 100 μM, 72 hours): 51%

CC[N+](C)(C)CCCOCc1ccc2sc3ccccc3c(=O)c2c1 [CCcompound11, N,N-Dimethyl-N-ethyl-3-[(9-oxo-9H-thioxanthen-2-yl)methoxy]-propane-1-aminium iodide]
inhibition at 100 µM (T47D cells; 100 μM, 72 hours): 59%
inhibition at 100 µM (HT-29 cells; Homo sapiens): 63 to 71%

CC[NH+](CC)CCCOCc1ccc2sc3ccccc3c(=O)c2c1 [CCcompound12, 2-{[3-(Diethylamino)propoxy]meth-yl}-9H-thioxanthen-9-one hydrochloride]
inhibition at 100 µM (T47D cells; 100 μM, 72 hours): 48%
inhibition at 100 µM (A-431 cells): 68 to 74%

C[N+](C)(CCO)Cc1ccc2sc3ccccc3c(=O)c2c1 [CCcompound13, 2-Hydroxy-N,N-dimethyl-N-[(9-oxo-9H-thioxanthen-2-yl)methyl]-ethanaminium bromide]
inhibition at 100 µM (T47D cells; 100 μM, 72 hours): 47%

CC[N+](CC)(CCO)Cc1ccc2sc3ccccc3c(=O)c2c1 [CCcompound14, 2-Hydroxy-N,N-Diethyl-N-[(9-oxo-9H-thioxanthen-2-yl)methyl]-ethanaminium bromide]
inhibition at 100 µM (T47D cells; 100 μM, 72 hours): 58%
inhibition at 100 µM (HT-29 cells; Homo sapiens): 63 to 71%

C[N+](C)(CCCO)Cc1ccc2sc3ccccc3c(=O)c2c1 [CCcompound15, 3-Hydroxy-N,N-dimethyl-N-[(9-oxo-9H-thioxanthen-2-yl)methyl]propane-1-aminium bromide]
inhibition at 100 µM (T47D cells; 100 μM, 72 hours): 35%

CC[N+](CC)(CCCO)Cc1ccc2sc3ccccc3c(=O)c2c1 [CCcompound16, 3-Hydroxy-N,N-diethyl-N-[(9-oxo-9H-thioxanthen-2-yl)methyl]-propane-1-aminium bromide]
inhibition at 100 µM (T47D cells; 100 μM, 72 hours): 48%
